Here are results for seven compounds from publication PMC9963373, “Rationalizing the Binding Modes of PET Radiotracers Targeting the Norepinephrine Transporter” (Pharmaceutics, 2023).

Structures are written as SMILES.

The nature of data set [1]: Rat biodistribution study, heart-to-blood ratio of fluorine-18-labeled tracers. Format: in vivo. The settings on record: male Wistar rats, 10 min after tail vein administration of fluorine-18-labeled tracer (1-2 MBq), n = 3-6. The text has this:
(§1) The experimental protocols were approved by the Animal Ethics Committee of the National Cerebral and Cardiovascular Center, Research Institute, Osaka, Japan (approval number 18019) and conducted in strict accordance with the Guide for the Care and Use of Laboratory Animals published by the US National Institutes of Health and the ARRIVE guidelines. Anesthesia was induced in male Wistar rats (n = 3–6 for each radiotracer, weighing 200–250 g on average, Charles River Laboratories, Research Models and Services, Germany GmbH, Sulzfeld, Germany) by using 5% isoflurane and maintained during the whole experiment with 2% isoflurane. Large animal PET imaging was performed on rhesus macaques (n = 2, weighing 3.9–4.2 kg, Primate Research Institute Kyoto University, Aichi, Japan). The induction of anesthesia in non-human primates (NHPs) was conducted by intramuscular injection of ketamine (1.5 mg/kg) and xylazine (0.6 mg/kg) to allow animal preparation and handling. After a tracheal cannula was inserted, 1.5% sevoflurane (SEVOFLURANE Inhalation Solution, Pfizer Japan Inc., Tokyo, Japan) vaporized with 100% oxygen was inhaled, and the tidal volume and respiratory rate of the ventilator were monitored and maintained in the normal range throughout the imaging sessions with an anesthesia workstation (Apollo®, Drägerwerk AG & Co. KGaA, Lübeck, Germany).
(§2) Preliminary PET imaging of [^18F]AF78(F) in rodents (n = 2) and NHPs (n = 2) was obtained according to a previously described protocol. For the rat biodistribution studies (n = 3–6 for each tracer), radiotracers (1–2 MBq) were administered via the tail vein. Ten minutes after radiotracer administration, the animals were euthanized. The organs of interest were harvested for tissue counting with a γ-counter (2480 Automatic Gamma Counter WIZARD^2, PerkinElmer LAS GmbH, Rodgau, Germany). Following weight and decay correction of the tissue counts, the heart-to-blood (H/B) ratios were calculated. A detailed experimental description can be found in the Supplementary Material. […]
PET Imaging and Biodistribution Study […]
Barbara, CA, US). For the rat biodistribution studies, radiotracers (1–2 MBq) were administered via the tail vein. Ten minutes after radiotracer administration, the animals were euthanized. The organs of interest were harvested for tissue counting with a γ-counter (2480 Automatic Gamma Counter WIZARD2, PerkinElmer, Rodgau, Germany). Following weight and decay correction of the tissue counts, the heart-to-blood ratios were calculated. NHPs (n = 2) were anesthetized during the imaging study and studied on a clinical PET scanner (PCA-2000A, Toshiba Medical Systems Corporation, Tochigi, Japan). After a 5 min transmission scan and an intravenous injection of the […]
and 300 s × 11) was started. […]

A short description of data set [2]: PET/CT imaging in healthy rats. It is filed as in vivo. Conditions: n = 2, 10-20 MBq via tail vein. As to the method: as §2
days. IC50 values were determined using nonlinear regression log(inhibitor) vs. normalized response in GraphPad Prism 8.4.3.
PET Imaging and Biodistribution Study
PET imaging of [18F]AF78(F) in rodents (n = 2) was obtained using a dedicated small animal PET system (microPET Focus 120, Siemens, Germany). […]
initiated with acquisition in list-mode format. […] Following weight and decay correction of the tissue counts, the heart-to-blood ratios were calculated. […]
injected 10 min before tracer administration, after which the PET scan started immediately. […] The obtained PET images were analyzed with the public domain tool AMIDE imaging software (A Medical Imaging Data Examiner, version 1.01).

Data set [3] concerns NET. Nature of the data set: PET imaging in non-human primates with and without desipramine blockade. It is filed as in vivo, rhesus macaques. Conditions: NHPs, n = 2; specificity proven by desipramine 1 mg/kg i.v. 10 min before tracer.
From the text: as §1, with “Large animal PET imaging was performed on rhesus macaques (n = 2, weighing 3.9–4.2 kg, Primate Research Institute Kyoto University, Aichi, Japan). The induction of anesthesia in non-human primates (NHPs) was conducted by intramuscular injection of ketamine (1.5 mg/kg) and xylazine (0.6 mg/kg) to allow animal preparation and handling.” left out
Preliminary PET imaging of [^18F]AF78(F) in rodents (n = 2) and NHPs (n = 2) was obtained according to a previously described protocol. […] Following weight and decay correction of the tissue counts, the heart-to-blood (H/B) ratios were calculated. […]

The target in data set [4] is T1, NET (Homo sapiens, UniProt P23975). Put plainly: Competitive cellular uptake assay against [3H]NE uptake in SK-N-SH cells.
From the text: It should be noted that the NET affinities of the tested compounds are expressed as IC50 in the current manuscript instead of the dissociation constant Kd. First, because all the tested compounds are substrates of NET that can be transported, they share the same binding site. […] Therefore, the IC50 value in the current study is considered equal to Kd without additional correction.
Competitive Cellular Uptake Studies
were cultivated according to the instructions from the supplier (Sigma-Aldrich Chemie GmbH,
Munich, Germany). One day before the competitive assay, the cells were seeded in 24-well plates
at a density of 1 × 10^5 cells/well and incubated in 0.5 mL of Eagle’s minimum essential medium
(EMEM) at 37 °C overnight. The medium was removed, and the cells were washed with 0.5 mL of
Dulbecco’s modified Eagle’s medium (DMEM) with low glucose containing 0.1% bovine serum
albumin (BSA). After washing, DMEM/0.1% BSA (300 µL) was added along with 50 µL of pargyline
presence of pyrogallol (20 µM final concentration, catechol-O-methyl transferase inhibitor) [1] and
pargyline (100 µM final concentration, monoamine oxidase inhibitor) [2], 50 µL of working solution
GBq/mmol, NET678250UC, PerkinElmer LAS GmbH, Germany) in DMEM/0.1% BSA together with
50 µL of the test compounds (desipramine, MIBG, HED and cold re ferences, each at different
incubation volume. The addition of the inhibitors of both enzymes involved in the natural
time. The plates were incubated at 37°C for 60 min. The cells were then washed with ice-cold PBS
(2 × 0.5 mL) followed by the addition of NaOH solution (0.1 N, 500 μL) and collection of the cell
lysates. Cell lysates (140 µL) were mixed with 1.8 mL of scintillation cocktail (Hionic-Fluor,
PerkinElmer, Rodgau, Germany) and radioactivity was measured in a liquid scintillation analyzer
All experimental data are presented as mean
± SD, with individual numbers measured in triplicate in experiment performed on 2–3 separate
Data set [5] deals with T1, NET. Also noted: Human neuroblastoma cell line SK-N-SH from metastatic bone marrow stably expressing NET; host or cells: SK-N-SH human neuroblastoma cells; method as in PMID 23306137. Conditions: NE-NET; read-out: Michaelis constant Km; cited from earlier work.

T1 sequence (P23975 whole entry): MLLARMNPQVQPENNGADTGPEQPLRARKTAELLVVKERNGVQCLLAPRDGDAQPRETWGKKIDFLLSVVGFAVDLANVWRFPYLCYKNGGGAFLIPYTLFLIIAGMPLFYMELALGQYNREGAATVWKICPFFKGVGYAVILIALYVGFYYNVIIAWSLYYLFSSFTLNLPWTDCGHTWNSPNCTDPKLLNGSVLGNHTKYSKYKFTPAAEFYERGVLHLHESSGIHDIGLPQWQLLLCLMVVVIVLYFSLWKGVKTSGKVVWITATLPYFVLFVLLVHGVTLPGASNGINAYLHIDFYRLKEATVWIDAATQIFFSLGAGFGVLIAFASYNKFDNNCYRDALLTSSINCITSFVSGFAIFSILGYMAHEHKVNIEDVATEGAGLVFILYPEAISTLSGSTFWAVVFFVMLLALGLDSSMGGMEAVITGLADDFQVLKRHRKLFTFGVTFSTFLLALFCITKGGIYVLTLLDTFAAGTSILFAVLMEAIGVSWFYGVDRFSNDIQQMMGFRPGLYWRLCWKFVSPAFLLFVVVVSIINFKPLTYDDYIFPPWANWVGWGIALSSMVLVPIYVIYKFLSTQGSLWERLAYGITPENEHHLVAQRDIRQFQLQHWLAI

As for `N=C(N)NCCc1ccc(OCCCF)c(F)c1` [AF78(F)], the “heart-to-blood (H/B) ratio” value in data set [1] stood at 13.2 ± 1.2. Moreover, in data set [2], the “systemic distribution of the radiotracer (PET/CT)” value is recorded as “homogenous distribution throughout the left ventricular wall”. In addition, the “uptake in the heart (PET)” value in data set [3] was “distinct NET-mediated uptake in the heart”.

Usually IC50 stands for the point on the concentration scale where inhibition reaches its midpoint. The low end stands for higher potency, the high end for lower potency. Consider `N=C(N)NCCc1ccc(OCCCF)c(O)c1` [AF78(OH)], for which, in data set [4], the IC50 amounted to 22.7 ± 3.58 µM.

The term Km denotes the substrate concentration at which the rate is half of its maximum. In the case of `NC[C@H](O)c1ccc(O)c(O)c1` [NE, norepinephrine], the Km in data set [5] was 280 ± 30 nM.

On to `N=C(N)NCCc1ccc(OCCCF)cc1` [AF78(H)], for which, in data set [4], the IC50 stood at 4.17 ± 0.92 µM.

Regarding `N=C(N)NCCc1ccc(OCCCF)c(Cl)c1` [AF78(Cl)], the “heart-to-blood (H/B) ratio” value in data set [1] is given as 10.4 ± 0.4. The IC50 in data set [4] was found to be 0.94 ± 0.28 µM.

With `N=C(N)NCCc1ccc(OCCCF)c(I)c1` [AF78(I)], the “heart-to-blood (H/B) ratio” value in data set [1] was 5.9 ± 0.4. In data set [4], this compound had an IC50 of 6.51 ± 3.32 µM. Further, in data set [4] (ratio of NET affinities in the competitive cellular uptake assay), the “fold less potent than AF78(F)” value was determined as 15 fold.

Regarding `N=C(N)NCCc1ccc(OCCCF)c(Br)c1` [AF78(Br)], the “heart-to-blood (H/B) ratio” value in data set [1] worked out at 8.7 ± 1.4. Besides, the IC50 in data set [4] was determined as 3.32 ± 0.72 µM.
